“Also recorded” adds a separate entry of the source.

Experiment [1] deals with adenomas (dysplastic polyps) in the rectum. Put plainly: In vivo fluorescence endoscopy of topically applied peptide in CPC;APC mouse model of colon cancer. As to conditions: FITC-labeled peptide 10 μM, 1 ml topical, ~10 minute dwell, PBS rinse. An excerpt: This small animal endoscope (Karl Storz Veterinary Endoscopy, Goleta, Calif.) consists of a 9.5 Fr (3 mm) diameter rigid Hopkins II 0 deg telescope with a 11.5 cm working length and a 3 Fr (1 mm) diameter instrument channel for performing tissue biopsy. Fluorescence excitation is produced with a 450 to 475 nm passband filter that can be manually switched into the optical path of a 175 W Nova Xenon light source, and is delivered to the endoscope via a 3 mm diameter fluid light cable with 250 cm length. Fluorescence images are collected with 510 nm barrier filter to block the excitation light, and are detected with a 3-chip color camera with an integrated parfocal zoom lens. Real time video can be recorded via firewire connected to a personal computer.
The rectum of the mouse was first cleaned of stool and debris by performing tap water lavage, and then the distal end of the small animal endoscope was lubricated and inserted into the rectum of the mouse. Once adenomas were identified on white light, shown in FIG. 25A, a 1 ml solution of FITC-labeled peptide “VRPMPLQ” at a concentration of 10 μM was applied through the instrument channel with a syringe, and allowed to dwell for ˜10 minute, followed by gentle rinsing with PBS. […] The rectum was then rinsed vigorously with PBS. Complete removal of the peptide from the rectal mucosa was observed on fluorescence. […]

The test system of the next experiment is colonic adenoma. As to conditions: topical, cited from earlier work.
For another experiment, the target named is T1, CXCR7 (Homo sapiens, UniProt P25106).
T1 construct: expressed in transfected cells; host or cells: reporter cells stably expressing the CXCR7/β-arrestin 2 PCA
T1 sequence (P25106 whole entry, species assumed): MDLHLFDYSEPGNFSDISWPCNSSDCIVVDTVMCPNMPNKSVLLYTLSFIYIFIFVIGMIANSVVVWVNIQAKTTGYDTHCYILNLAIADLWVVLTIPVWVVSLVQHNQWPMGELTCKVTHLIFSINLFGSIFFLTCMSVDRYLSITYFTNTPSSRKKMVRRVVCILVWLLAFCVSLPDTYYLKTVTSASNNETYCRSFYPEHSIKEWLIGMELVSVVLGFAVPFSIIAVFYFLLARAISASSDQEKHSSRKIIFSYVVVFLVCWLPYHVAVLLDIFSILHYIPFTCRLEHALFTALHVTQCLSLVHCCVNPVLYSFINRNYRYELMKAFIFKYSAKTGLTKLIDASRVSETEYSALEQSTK
T1 sequence (P32121 whole entry partner, species assumed): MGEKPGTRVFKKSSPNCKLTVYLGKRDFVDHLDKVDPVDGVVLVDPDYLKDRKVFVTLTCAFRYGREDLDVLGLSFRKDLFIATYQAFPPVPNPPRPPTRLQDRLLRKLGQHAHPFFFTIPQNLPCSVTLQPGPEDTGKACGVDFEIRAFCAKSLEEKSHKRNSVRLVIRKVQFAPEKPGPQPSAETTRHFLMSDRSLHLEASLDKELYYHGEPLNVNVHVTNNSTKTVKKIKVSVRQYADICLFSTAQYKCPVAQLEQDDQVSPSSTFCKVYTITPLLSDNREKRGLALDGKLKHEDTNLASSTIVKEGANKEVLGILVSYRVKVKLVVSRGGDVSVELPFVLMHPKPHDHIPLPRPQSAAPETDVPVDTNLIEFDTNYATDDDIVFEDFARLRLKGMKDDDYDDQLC
Description: CXCR7/β-arrestin 2 firefly luciferase complementation assay for CXCR7 activation. The experiment is classed as cell-based. The source says:
Binding of synthetic or natural ligands to 7-transmembrane receptors activates the receptor, resulting in receptor activation and recruitment of β-arrestin, a cytosolic adapter protein. The protein interaction between CXCR7 and β-arrestin 2 has been used to develop a protein fragment complementation assay for detecting activation of CXCR7. […] Ligand-dependent interaction of CXCR7 and β-arrestin 2 also brings together NLuc and CLuc fragments, which reconstitutes active firefly luciferase.
Ligands for CXCR7 activate the receptor, causing recruitment of β-arrestin. To determine to what extent the engineered knottin interacts with CXCR7, firefly luciferase complementation for CXCR7 activation was used as a reporter for binding of the peptide to the receptor. CXCR7/β-arrestin reporter cells were incubated with increasing concentrations of CXCR7-targeted knottin for 2 hours and then luciferase activity was quantified in living cells.

The target of another experiment is T2, CXCR4 (Homo sapiens, UniProt P61073).
T2 construct: expressed in transfected cells
T2 sequence (P61073 whole entry, species assumed): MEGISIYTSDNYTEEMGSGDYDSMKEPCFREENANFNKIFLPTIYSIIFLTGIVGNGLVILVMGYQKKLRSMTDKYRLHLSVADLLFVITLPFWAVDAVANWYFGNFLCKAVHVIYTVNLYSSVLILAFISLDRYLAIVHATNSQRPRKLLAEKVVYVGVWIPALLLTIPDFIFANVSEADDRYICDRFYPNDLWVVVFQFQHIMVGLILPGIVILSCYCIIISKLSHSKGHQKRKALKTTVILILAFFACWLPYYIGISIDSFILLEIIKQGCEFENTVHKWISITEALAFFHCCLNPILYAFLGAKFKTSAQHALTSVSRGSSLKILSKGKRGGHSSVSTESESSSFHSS
Put plainly: Luciferase complementation for recruitment of β-arrestin to CXCR4. The experiment is classed as cell-based.

Turning to “QLMRPPV [FITC-labeled scrambled (control) peptide, reference compound]”, the “peptide binding to adenomas (fluorescence image)” value in experiment [1] is “significantly less fluorescence intensity; also recorded: reduced binding”.
As for “VRPMPLQ [7mer peptide from phage display, conjugated to fluorescein using a hexanoic acid linker to the N-terminus]”, the “peptide binding to adenomas (fluorescence image)” value in experiment [1] is listed as “preferential peptide binding to the adenomas; also recorded: affinity binding”. Besides, the “peptide binding seen in fluorescence image, adenoma versus normal mucosa” value in the experiment with colonic adenoma (50 μm depth, FIG. 23B) is on record as “significant peptide binding to colonocytes surrounding dysplastic crypts (adenoma)”. Besides, the “average contrast ratio (adenoma:normal fluorescence intensity)” value in the experiment with colonic adenoma (imaged at 50 μm depth, n=10 adenomas and adjacent normal mucosa) is listed as 21±6.
Turning to “GGCKPVSLSYRAPARFCKQDSDCLAGCVCGPNGFCGSA [CXCR7-targeted knottin]”, the “selectivity CXCR7 versus CXCR4” value with CXCR7 (from luciferase complementation for both receptors) is “selectively interacts with CXCR7 and not CXCR4”. The “activation of CXCR7 (bioluminescence)” value in the experiment with CXCR7 (reporter cells, living cells, knottin incubated 2 hours with increasing concentrations) was “increased bioluminescence; also recorded: dose-dependent activation of CXCR7”. For the same substance, in the experiment with CXCR4, the “activation of CXCR4 (recruitment of β-arrestin)” value was “did not activate CXCR4”.

These data come from US9921406B2, “Targeted dual-axes confocal imaging apparatus with vertical scanning capabilities” (THE REGENTS OF THE UNIVERSITY OF MICHIGAN, priority 2009, dated 2018).
